A value given as a limit tells only on which side of the number the result lay.

Experiment [1] can be described thus: Compound was evaluated for its ability to displace [3H]-L-364,718 from Cholecystokinin type A receptor from rat pancreas.
Experiment [2] is described as follows: Compound was evaluated for its ability to displace [3H]L-364718 from Cholecystokinin type A receptor from rat pancreas at dose of 0.03 umol/kg.

As usually defined, the IC50 is the midpoint of a concentration-inhibition curve. A higher IC50 goes with a need for much substance. For the compound `Cc1cccc(NC(=O)NC2N=C(c3ccccc3)c3ccccc3N(CC(=O)C3(C)CCCC3)C2=O)c1` (stereo not drawn) [1-{1-[2-(1-Methyl-cyclopentyl)-2-oxo-ethyl]-2-oxo-5-phenyl-2,3-dihydro-1H-benzo[e][1,4]diazepin-3-yl}-3-m-tolyl-urea], the IC50 in experiment [1] was determined as 293 nM.

On to `Cc1cccc(NC(=O)NC2N=C(c3ccccc3)c3ccccc3N(CC(=O)C3(C)CCCCC3)C2=O)c1` (stereo not drawn) [1-{1-[2-(1-Methyl-cyclohexyl)-2-oxo-ethyl]-2-oxo-5-phenyl-2,3-dihydro-1H-benzo[e][1,4]diazepin-3-yl}-3-m-tolyl-urea], for which the IC50 in experiment [1] is more than 10000 nM.

Turning to `Cc1cccc(NC(=O)N[C@H]2N=C(c3ccccc3)c3ccccc3N(CC(=O)C3CCCC3)C2=O)c1` [1-[(S)-1-(2-Cyclopentyl-2-oxo-ethyl)-2-oxo-5-phenyl-2,3-dihydro-1H-benzo[e][1,4]diazepin-3-yl]-3-m-tolyl-urea], the IC50 in experiment [1] is 2500 nM.

For `Cc1cccc(NC(=O)NC2N=C(c3ccccc3)c3ccccc3N(CC(=O)C(C)C)C2=O)c1` (stereo not drawn) [1-[1-(3-Methyl-2-oxo-butyl)-2-oxo-5-phenyl-2,3-dihydro-1H-benzo[e][1,4]diazepin-3-yl]-3-m-tolyl-urea], the IC50 in experiment [1] was found to be 1200 nM.

`Cc1cccc(NC(=O)NC2N=C(c3ccccc3)c3ccccc3N(CC(=O)CC3CCCCC3)C2=O)c1` (stereo not drawn) [1-[1-(3-Cyclohexyl-2-oxo-propyl)-2-oxo-5-phenyl-2,3-dihydro-1H-benzo[e][1,4]diazepin-3-yl]-3-m-tolyl-urea] registered a half-maximal inhibitory concentration (IC50) in experiment [1] of 480 nM.

`Cc1cccc(NC(=O)N[C@@H]2N=C(c3ccccc3)c3ccccc3N(CC(=O)C3CCCC3)C2=O)c1` [1-[(R)-1-(2-Cyclopentyl-2-oxo-ethyl)-2-oxo-5-phenyl-2,3-dihydro-1H-benzo[e][1,4]diazepin-3-yl]-3-m-tolyl-urea] gave a half-inhibitory concentration (IC50) in experiment [1] of 440 nM.

In experiment [1], `CCC(C)(C)C(=O)CN1C(=O)C(NC(=O)Nc2cccc(C)c2)N=C(c2ccccc2)c2ccccc21` (stereo not drawn) [1-[1-(3,3-Dimethyl-2-oxo-pentyl)-2-oxo-5-phenyl-2,3-dihydro-1H-benzo[e][1,4]diazepin-3-yl]-3-m-tolyl-urea] yielded a 50% inhibitory concentration (IC50) of 720 nM.

In turn, `Cc1cccc(NC(=O)N[C@@H]2N=C(c3ccccc3)c3ccccc3N(CC(=O)C(C)(C)C)C2=O)c1` [1-[(R)-1-(3,3-Dimethyl-2-oxo-butyl)-2-oxo-5-phenyl-2,3-dihydro-1H-benzo[e][1,4]diazepin-3-yl]-3-m-tolyl-urea] came in with a half-maximal inhibitory concentration (IC50) in experiment [2] of 111 nM.

Values taken from BindingDB's records for doi:10.1016/0960-894X(95)00556-9 (1996).
